Source: patent US20150071954A1, “STABLE PEPTIDE MIMETICS OF THE HIV-1 GP41 PRE-HAIRPIN INTERMEDIATE” (priority 2012, published 2015)
No end group written: not given here.

How the values were obtained:
[1] = biological target: gp41 of HIV-1 virus HXB2 (HIV-1 isolate HXB2) (UniProt P04578); test: cell-based or functional assay
[2] = biological target: gp41 of HIV-1 virus V570A (HIV-1 isolate HXB2) (UniProt P04578); test: cell-based or functional assay
[3] = Circular dichroism (secondary structure, thermal stability); type: physicochemical; conditions: pH 4, 20° C.
[4] = Analytical ultracentrifugation (oligomeric state); type: physicochemical; conditions: for AUC Ratio (observed to predicted Mw): AUC condition a: 25 mM Na Acetate, 0.15M NaCl, pH 4; for self-association from AUC ratio of observed to predicted molecular weight: monomeric peptides
Procedure: All analytical ultracentrifugation (AU) experiments were performed with a XL-I analytical ultracentrifuge (Beckman Coulter, Inc., Indianopolis, Ind.) at 20° C. For sedimentation velocity analysis, the samples were centrifuged at 48,000 rpm at 20° C. for 5 hours, with radial absorbance scans taken approximately every 4 minutes. g*(s) analysis was performed with the program DCDT+, version 2.2.1 (John Philo, Thousand Oaks, Calif.) or the Optima XL-I data analysis software (Beckman Coulter, Inc.). Sedimentation equilibrium experiments were conducted at three different loading concentrations and three different rotor speeds (16,000, 20,000, and 30,000). Molecular masses were calculated using the Optima XL-I data analysis software or using Heteroanalysis version 1.1.33 (from the Analytical Ultracentrifugation Facility, Biotechnology and Bioservices Center of the University of Connecticut).

[5] = system: D5 IgG binding to 5-helix (recombinant gp41 mimetic); test: D5/5-Helix Competitive Binding Assay (DCBA), peptide constructs; conditions: for IC50: competition for D5 binding to 5-helix, FRET
Procedure: An in vitro binding assay based on fluorescence resonance energy transfer (FRET) was performed as previously described in Caulfield et al., 2010, J Biol Chem 285:40604-40611. Briefly, the assay uses D5 IgG (see U.S. Pat. No. 7,744,887) conjugated to europium cryptate (Eu-D5) and a biotinylated derivative of the recombinant gp41 mimetic 5-helix (5H). Biotin-5H binds to a streptavidin-conjugated allophycocyanin (APC) substrate to form a 5H-SA-APC complex. Binding of Eu-D5 to 5H results in FRET from Eu to APC. When the reaction system is excited at a wavelength of 340 nm, the amount of bound Eu-D5 is measured at the emission wavelength of 665 nm, and total Eu is measured at the emission wavelength of 620 nm. Data are reported as 10000× the ratio of signal at 665 nm to signal at 620 nm. Agents that bind competitively to either component cause a decrease in the ratio value.

[6] = system: HXB2; type: cell-based, HIV-1; conditions: HeLa P4R5 cells, virus HXB2; read-out: p4/2R5 IC50 HXB2
From the text: (§1) A number of different experimental methods can be used to determine whether or not a gp41 peptide mimetic can form a stable, faithful mimetic of said internal coiled-coil. For example, an assay designed to measure the ability of the conformationally constrained gp41 peptide mimetics to inhibit infectivity of HIV particles can be performed. In one such assay, HeLa cells stably expressing human CD4 and CCR5 receptors and harboring a β-galactosidase reporter gene driven by a tat-responsive fragment of HIV-2 LTR are infected with HIV-1 of various strains in the presence of gp41 peptide mimetics at varying concentrations. After incubating said cells for a specific period of time, the cells are lysed and β-galactosidase activity is quantified.
(§2) This neutralization assay was performed as previously described in Joyce et al., 2002, J Biol Chem 277:45811-45820 with the following modifications: HeLa P4R5 cells were seeded at 1000 cells/well in a 384-well plate and infected the following day with the appropriate HIV-1 or SHIV virus at a multiplicity of infection of approximately 0.01 in the presence of serial dilutions of immune sera or fractionated IgG 48 hours post infection, and cells were lysed and β-galactosidase activity was measured using a chemiluminescent substrate (GalScreen®, Applied Biosystems™, Life Technologies Corp., Carlsbad, Calif.). For analysis of purified IgG, the data are expressed as IC50, defined as the IgG concentration resulting in 50% reduction of chemiluminescence signal. For analysis of sera, the IC50 is defined as the reciprocal serum dilution resulting in 50% reduced chemiluminescence signal.

[7] = system: viral strain V570A; type: cell-based, HIV-1; conditions: HeLa P4R5 cells, virus V570A; read-out: p4/2R5 IC50 V570A
From the text: as §1, §2

[8] = biological target: gp41 of HIV-1 virus V570A (HIV-1 isolate HXB2, UniProt P04578 512-856); test: cell-based or functional assay
[9] = biological target: gp41 of HIV-1 virus HXB2 (HIV-1 isolate HXB2, UniProt P04578 512-856); test: cell-based or functional assay
[10] = biological target: the molecule itself; test: analytical ultracentrifugation (ratio of observed to predicted molecular weight); self-association
[11] = CD condition a: 50 mM Na Acetate, 0.15M NaCl

## D5 IgG (antibody)
[1]
  p4/2R5 IC50 (nM), HXB2: 179 nM
[2]
  p4/2R5 IC50 (nM), V570A: 61.7 nM

## Ac-QIRELISKIVEQINNILRAIEAQQHALQLTVWGIKQLQARILAVERYLKDQ-NH2 (N-terminus assumed) [Peptide N51-2B]
[3]; [11]
  CD % (-helix): 97%
[4]
  AUC Ratio (observed to predicted Mw): 3.6
  self-association from AUC ratio of observed to predicted molecular weight: strong preference for self-association
[5]
  effect of mutations on D5 binding in DCBA: apparent negative impact
  IC50: > 300 nM
[6]
  IC50: 60.9 nM
[7]
  IC50: 33.4 nM

## KTA(N51-3B)3: three thiol tagged monomeric N51-3B peptides ligated on trivalent bromide scaffold KTA-Br (QARQLLSGIVQQQNNLLRAIEAQQHALQLTVWGIKQLQARILAVERYLKDQ-NH2; not fully specified (N-terminus); also: trimer: three S-acetylglycolic thiol-tagged N51-3B ligated on trivalent bromide scaffold KTA-Br)
[3]; CD condition c: 25 mM Na Acetate
  CD % (-helix): 88%
[4]; pH 7
  AUC Observed Mw: precipitation: ppt (pH 7)
[5]
  IC50: 38.4 nM

## Ac-QARQLLSGIVQQQNNLLRAIEAQQHALQLTVWGIKQLQARILAVERYLKDQ-NH2 (N-terminus assumed) [Peptide N51-3B]
[3]; [11]
  CD % (-helix): 105%
[4]
  AUC Ratio (observed to predicted Mw): 3.3
  self-association from AUC ratio of observed to predicted molecular weight: strong preference for self-association
[5]
  effect of mutations on D5 binding in DCBA: apparent negative impact
  IC50: > 300 nM
[6]
  IC50: 107 nM
[7]
  IC50: 49.3 nM

B1: N51-3B (L′584) (peptide)
peptide: QARQLLSGIVQQQNNLLRAIEAQQHALQLTVWGIKQLQARILAVERYLKDQ
notes: Monomeric synthetic peptide
[8]
  p4/2R5 IC50 (nM), V570A: 49.3 nM
[9]
  p4/2R5 IC50 (nM), HXB2: 107 nM
[10]
  binding result: binds

B2: KTA(N51-3B)3 (L′510) (peptide)
peptide: QARQLLSGIVQQQNNLLRAIEAQQHALQLTVWGIKQLQARILAVERYLKDQ
modifications: not fully specified (N-terminus); also: covalent trimer of three N51-3B peptides on Kemp's triacid scaffold
[8]
  p4/2R5 IC50 (nM), V570A: 29.1 nM
[9]
  p4/2R5 IC50 (nM), HXB2: 79.4 nM

B3: N51-2B (L′583) (peptide)
peptide: QIRELISKIVEQINNILRAIEAQQHALQLTVWGIKQLQARILAVERYLKDQ
modifications: not fully specified (C-terminus)
notes: Monomeric synthetic peptide made on Rink amide resin; Self-associates in solution
[8]
  p4/2R5 IC50 (nM), V570A: 33.4 nM
[9]
  p4/2R5 IC50 (nM), HXB2: 60.9 nM
[10]
  binding result: binds
